We go through 17 compounds from patent publication US11142526B2, “Spirocycle compounds and methods of making and using same” (H. Lundbeck A/S, priority 2017, dated 2021).

Read-outs that look alike come from different tables or passages of the source. Bounds are passed on as bounds.

Test [1] deals with MAGL (Homo sapiens (Human), UniProt Q99685). Briefly: In vitro competitive activity-based protein profiling (gel-based, FP-Rh or HT-01 probe). It is filed as biochemical. As to the method: In Vitro Competitive Activity-Based Protein Profiling.
Proteomes (human prefrontal cortex or cell membrane fractions) (50 μL, 1.0 mg/mL total protein concentration) were preincubated with varying concentrations of inhibitors at 37° C. After 30 min, FP-Rh or HT-01 (1.0 μL, 50 μM in DMSO) was added and the mixture was incubated for another 30 min at room temperature. Reactions were quenched with SDS loading buffer (15 μL—4×) and run on SDS-PAGE.

The target in test [2] is MAGL (Mus musculus (Mouse), UniProt O35678). As to the kind of experiment: In vitro competitive activity-based protein profiling, mouse brain proteome. Type of test: biochemical. Conditions: 1 uM; mouse.
Where [3] appears, read: human PC3, read-out: MAGL % Inhibition at 1 μM (human PC3).
Where [4] appears, read: human PFC (prefrontal cortex), read-out: MAGL % Inhibition at 1 μM (human PFC).
Where [5] appears, read: human PC3, read-out: MAGL Human PC3 (IC50).
The mark [6] stands for this setting: human PFC (prefrontal cortex), read-out: MAGL Human PFC (IC50).

MAGL (Mus musculus (Mouse), UniProt O35678), sequence (O35678 whole entry): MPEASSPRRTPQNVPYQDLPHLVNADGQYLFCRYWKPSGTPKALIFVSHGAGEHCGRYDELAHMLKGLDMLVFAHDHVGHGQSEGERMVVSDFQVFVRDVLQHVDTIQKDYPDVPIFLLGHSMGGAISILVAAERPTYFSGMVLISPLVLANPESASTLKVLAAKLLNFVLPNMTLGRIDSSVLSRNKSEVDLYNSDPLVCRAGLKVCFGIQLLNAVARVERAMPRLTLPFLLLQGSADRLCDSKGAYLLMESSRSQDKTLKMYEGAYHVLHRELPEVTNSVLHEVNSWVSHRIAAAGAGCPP
MAGL (Homo sapiens (Human), UniProt Q99685), sequence (Q99685 whole entry): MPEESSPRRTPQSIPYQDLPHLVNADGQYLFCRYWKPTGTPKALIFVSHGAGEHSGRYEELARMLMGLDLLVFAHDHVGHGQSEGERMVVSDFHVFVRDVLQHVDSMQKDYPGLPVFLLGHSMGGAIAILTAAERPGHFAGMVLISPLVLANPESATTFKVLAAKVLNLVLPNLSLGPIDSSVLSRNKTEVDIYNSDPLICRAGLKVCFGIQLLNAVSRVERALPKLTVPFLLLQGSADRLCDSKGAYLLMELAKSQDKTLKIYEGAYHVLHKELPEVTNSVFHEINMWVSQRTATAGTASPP

Broadly, the inhibition is the drop in the measured response relative to a control, in per cent. Consider `O=C(OC(C(F)(F)F)C(F)(F)F)N1CCC2(CCCN2C(=O)c2c(C3CC3)nc3cccnn23)CC1` [Example 3, 1,1,1,3,3,3-Hexafluoropropan-2-yl 1-(2-cyclopropylimidazo[1,2-b]pyridazine-3-carbonyl)-1,8-diazaspiro[4.5]decane-8-carboxylate], for which the inhibition at 1 µM on MAGL [1] (setting [3]), at MAGL [1] (setting [4]) and at MAGL [2] was more than 75% each time.
In general, IC50 refers to the concentration at which inhibition is half-maximal. Turning to `O=C(OC(C(F)(F)F)C(F)(F)F)N1CCC2(CCCN2Cc2cnc(N3CCNCC3)s2)CC1` [Example 4, 1,1,1,3,3,3-hexafluoropropan-2-yl 1-((2-(piperazin-1-yl)thiazol-5-yl)methyl)-1,8-diazaspiro[4.5]decane-8-carboxylate], the inhibition at 1 µM at MAGL [1] (setting [4]) and at MAGL [2] was more than 75% each time. The 50% inhibitory concentration (IC50) at MAGL [1] (setting [5]) is less than 100 nM.
Take `O=C(OC(C(F)(F)F)C(F)(F)F)N1CCC2(CCCN2C(=O)c2ncccn2)CC1` [Example 12, 1,1,1,3,3,3-Hexafluoropropan-2-yl 1-(pyrimidine-2-carbonyl)-1,8-diazaspiro[4.5]decane-8-carboxylate]: the inhibition at 1 µM on MAGL [1] (setting [4]) and on MAGL [2] was less than 25% each time.
Consider `Cc1ccc2sc(C(=O)N3CCCC34CCN(C(=O)OC(C(F)(F)F)C(F)(F)F)CC4)cc2c1` [Example 17, 1,1,1,3,3,3-Hexafluoropropan-2-yl 1-(5-methylbenzo[b]thiophene-2-carbonyl)-1,8-diazaspiro[4.5]decane-8-carboxylate], for which the inhibition at 1 µM on MAGL [1] (setting [4]) and on MAGL [2] was more than 75% each time. In addition, the IC50 on MAGL [1] (setting [6]) was less than 100 nM.
`Cc1nn(C)c(C(=O)N2CCCC23CCN(C(=O)OC(C(F)(F)F)C(F)(F)F)CC3)c1C#N` [Example 19, 1,1,1,3,3,3-hexafluoropropan-2-yl 1-(4-cyano-1,3-dimethyl-1H-pyrazole-5-carbonyl)-1,8-diazaspiro[4.5]decane-8-carboxylate]: the inhibition at 1 µM at MAGL [1] (setting [4]) and on MAGL [2] was more than 75% throughout.
`CC(C)N1CCn2cc(C(=O)N(C)C3(C)CCN(C(=O)OC(C(F)(F)F)C(F)(F)F)CC3)nc2C1` [Example 22, 1,1,1,3,3,3-Hexafluoropropan-2-yl 4-(7-isopropyl-N-methyl-5,6,7,8-tetrahydroimidazo[1,2-a]pyrazine-2-carboxamido)-4-methylpiperidine-1-carboxylate]: the inhibition at 1 µM on MAGL [1] (setting [3]), at MAGL [1] (setting [4]) and on MAGL [2] was more than 75% each time. The IC50 on MAGL [1] (setting [5]) was less than 100 nM.
As for `CN(C(=O)c1cn2c(n1)CN(C1CCC1)CC2)C1(C)CCN(C(=O)OC(C(F)(F)F)C(F)(F)F)CC1` [Example 23, 1,1,1,3,3,3-Hexafluoropropan-2-yl 4-(7-cyclobutyl-N-methyl-5,6,7,8-tetrahydroimidazo[1,2-a]pyrazine-2-carboxamido)-4-methylpiperidine-1-carboxylate], the inhibition at 1 µM on MAGL [1] (setting [3]), on MAGL [1] (setting [4]) and on MAGL [2] was more than 75% throughout. Besides, the IC50 on MAGL [1] (setting [5]) is less than 100 nM.
`[2H]C1(N2CCn3cc(C(=O)N(C)C4(C)CCN(C(=O)OC(C(F)(F)F)C(F)(F)F)CC4)nc3C2)CC1` [Example 25, 1,1,1,3,3,3-hexafluoropropan-2-yl 4-(7-(cyclopropyl-1-d)-N-methyl-5,6,7,8-tetrahydroimidazo[1,2-a]pyrazine-2-carboxamido)-4-methylpiperidine-1-carboxylate]: the inhibition at 1 µM at MAGL [1] (setting [3]) and at MAGL [2] was more than 75% throughout. For the same compound, the IC50 on MAGL [1] (setting [5]) was less than 100 nM.
Take `CC(=O)N1CCn2cc(C(=O)N(C)C3(C)CCN(C(=O)OC(C(F)(F)F)C(F)(F)F)CC3)nc2C1` [Example 26, 1,1,1,3,3,3-Hexafluoropropan-2-yl 4-(7-acetyl-N-methyl-5,6,7,8-tetrahydroimidazo[1,2-a]pyrazine-2-carboxamido)-4-methylpiperidine-1-carboxylate]: the results for the inhibition at 1 µM on MAGL [1] (setting [3]), on MAGL [1] (setting [4]) and at MAGL [2] were more than 75%, more than 75% and 25 to 75%, respectively.
In the case of `CC1(NC(=O)c2cn3c(n2)CN(c2ncco2)CC3)CCN(C(=O)OC(C(F)(F)F)C(F)(F)F)CC1` [Example 28, 1,1,1,3,3,3-Hexafluoropropan-2-yl 4-methyl-4-(7-(oxazol-2-yl)-5,6,7,8-tetrahydroimidazo[1,2-a]pyrazine-2-carboxamido)piperidine-1-carboxylate], the inhibition at 1 µM at MAGL [1] (setting [3]) and at MAGL [2] was more than 75% in each case.
With `CC1(NC(=O)c2cn3c(n2)CN(c2cnccn2)CC3)CCN(C(=O)OC(C(F)(F)F)C(F)(F)F)CC1` [Example 29, 1,1,1,3,3,3-Hexafluoropropan-2-yl 4-methyl-4-(7-(pyrazin-2-yl)-5,6,7,8-tetrahydroimidazo[1,2-a]pyrazine-2-carboxamido)piperidine-1-carboxylate], the inhibition at 1 µM at MAGL [1] (setting [3]) and on MAGL [2] was more than 75% each time.
For `Cc1cccnc1C1(C(=O)N2CCCC23CCN(C(=O)OC(C(F)(F)F)C(F)(F)F)CC3)CC1` [Example 30, 1,1,1,3,3,3-Hexafluoropropan-2-yl 1-(1-(3-methylpyridin-2-yl)cyclopropane-1-carbonyl)-1,8-diazaspiro[4.5]decane-8-carboxylate], the inhibition at 1 µM at MAGL [1] (setting [3]), at MAGL [1] (setting [4]) and at MAGL [2] was more than 75% each time.
On to `O=C(OC(C(F)(F)F)C(F)(F)F)N1CCC2(CCCN2C(=O)C2(c3ncc(C4CC4)cn3)CC2)CC1` [Example 33, 1,1,1,3,3,3-Hexafluoropropan-2-yl 1-(1-(5-cyclopropylpyrimidin-2-yl)cyclopropane-1-carbonyl)-1,8-diazaspiro[4.5]decane-8-carboxylate], for which the inhibition at 1 µM at MAGL [1] (setting [3]) and at MAGL [2] was more than 75% in each case. At MAGL [1] (setting [6]), the IC50 was less than 100 nM.
In the case of `O=C(OC(C(F)(F)F)C(F)(F)F)N1CCC2(CCCN2C(=O)c2cc3c(s2)CCNC3)CC1` [Example 152, 1,1,1,3,3,3-Hexafluoropropan-2-yl 1-(4,5,6,7-tetrahydrothieno[3,2-c]pyridine-2-carbonyl)-1,8-diazaspiro[4.5] decane-8-carboxylate], the half-maximal inhibitory concentration (IC50) at MAGL [1] (setting [5]) was less than 100 nM.
On the same count and under the same terms, the value for `O=C(OC(C(F)(F)F)C(F)(F)F)N1CCC2(CCCN2C(=O)c2nc3n(n2)CCCN3)CC1` [Example 153, 1,1,1,3,3,3-Hexafluoropropan-2-yl 1-(4,5,6,7-tetrahydro-[1,2,4]triazolo[1,5-a]pyrimidine-2-carbonyl)-1,8-diazaspiro[4.5]decane-8-carboxylate] was less than 100 nM.
`CC1(NC(=O)c2cn3c(n2)CN(C2CCC2)CC3)CCN(C(=O)OC(C(F)(F)F)C(F)(F)F)CC1` [Example 183, 1,1,1,3,3,3-Hexafluoropropan-2-yl 4-(7-cyclobutyl-5,6,7,8-tetrahydroimidazo[1,2-a]pyrazine-2-carboxamido)-4-methylpiperidine-1-carboxylate]: the inhibition at 1 µM at MAGL [1] (setting [3]) and on MAGL [1] (setting [4]) was more than 75% in each case. The IC50 on MAGL [1] (setting [5]) is less than 100 nM.
As to `O=C(OC(C(F)(F)F)C(F)(F)F)N1CCC2(CCCN2C(=O)C(F)(F)c2cnccn2)CC1` [Example 197, 1,1,1,3,3,3-Hexafluoropropan-2-yl 1-(2,2-difluoro-2-(pyrazin-2-yl)acetyl)-1,8-diazaspiro[4.5] decane-8-carboxylate], the inhibition at 1 µM on MAGL [1] (setting [3]) and at MAGL [1] (setting [4]) was more than 75% throughout.
